Data reported in patent publication US9193731B2, “Antimicrobial compounds and methods of making and using the same” (Melinta Therapeutics, Inc., priority 2009, dated 2015).

system: Escherichia coli strain ATCC25922; assay: standard microdilution assay to determine minimum inhibitory concentrations (MICs); assay type: cell-based; details: Escherichia coli strain ATCC25922, microdilution
In short: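 Broth microdilution MIC against E. coli ATCC25922, following CLSI protocols, typically in a 100 microliter final volume. Results reported as +/− relative to a 16 micrograms/ml cutoff.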

Structure (SMILES) | E. coli ATCC25922 MIC
N=C(N)NCCCNCc1ccc(-n2cc3cc(-c4ccc(S(=O)(=O)N(CCOc5ccc(F)cc5)C5CCNCC5)cc4)[nH]c3nc2=O)cc1 [Compound 770] | + (a “+” indicates that the compound has an MIC value of 16 micrograms/ml or less)
N=C(N)NCCCNCc1ccc(-n2cc3cc(-c4ccc(S(=O)(=O)N(Cc5csc(-c6ccc(C(F)(F)F)cc6)n5)C5CCNCC5)cc4)[nH]c3nc2=O)cc1 [Compound 786] | + (a “+” indicates that the compound has an MIC value of 16 micrograms/ml or less)
COc1ccc(CN(C2CCNCC2)S(=O)(=O)c2ccc(-c3cc4cn(-c5ccc(CNCCCNC(=N)N)cc5)c(=O)nc4[nH]3)cc2)cc1[N+](=O)[O-] [Compound 787] | + (a “+” indicates that the compound has an MIC value of 16 micrograms/ml or less)
N=C(N)NCCCNCc1ccc(-c2cn3cc(-c4ccc(S(=O)(=O)N5CCN(C(=O)OCc6ccccc6)CC5)cc4)[nH]c3nc2=O)cc1 [Compound 790] | + (a “+” indicates that the compound has an MIC value of 16 micrograms/ml or less)
N=C(N)NCCCNCc1ccc(-n2cc3cc(-c4ccc(S(=O)(=O)N(CCCc5cccnc5)C5CCNCC5)cc4)[nH]c3nc2=O)cc1 [Compound 801] | + (a “+” indicates that the compound has an MIC value of 16 micrograms/ml or less)
COCCOCCN(C1CCNCC1)S(=O)(=O)c1ccc(-c2cc3cn(-c4ccc(CNCCCNC(=N)N)cc4)c(=O)nc3[nH]2)cc1 [Compound 802] | + (a “+” indicates that the compound has an MIC value of 16 micrograms/ml or less)
N=C(N)NCCCNCc1ccc(-n2cc3cc(-c4ccc(S(=O)(=O)N(Cc5cc(-c6ccc(Cl)cc6)on5)C5CCNCC5)cc4)[nH]c3nc2=O)cc1 [Compound 803] | + (a “+” indicates that the compound has an MIC value of 16 micrograms/ml or less)
N=C(N)NCCCNCc1ccc(-n2cc3cc(-c4ccc(S(=O)(=O)NC5CCCNC5)cc4)[nH]c3nc2=O)cc1 (centres unmarked) [Compound 805] | + (a “+” indicates that the compound has an MIC value of 16 micrograms/ml or less)
NCCCNCc1ccc(-n2cc3cc(-c4ccc(S(=O)(=O)NC5CCCNC5)cc4)[nH]c3nc2=O)cc1 (centres unmarked) [Compound 807] | + (a “+” indicates that the compound has an MIC value of 16 micrograms/ml or less)
N=C(N)NCCCNCc1ccc(-c2cn3cc(-c4ccc(C(=O)N5CCC(N)CC5)cc4)[nH]c3nc2=O)cc1 [Compound 808] | + (a “+” indicates that the compound has an MIC value of 16 micrograms/ml or less)
NCCCCOc1ccc(-c2cn3cc(-c4ccc(S(=O)(=O)N5CCNCC5)cc4)[nH]c3nc2=O)cc1 [Compound 809] | − (a “−” indicates that the compound has an MIC value greater than 16 micrograms/ml)
CC1CN(C(=O)c2ccc(-c3cn4cc(-c5ccc(CNCCCN)cc5)c(=O)nc4[nH]3)cc2)CC(C)N1 (centres unmarked) [Compound 819] | + (a “+” indicates that the compound has an MIC value of 16 micrograms/ml or less)
CC1CN(C(=O)c2ccc(-c3cn4cc(-c5ccc(CNCCCN)cc5)c(=O)nc4[nH]3)cc2)CCN1 (centres unmarked) [Compound 821] | + (a “+” indicates that the compound has an MIC value of 16 micrograms/ml or less)
CC1CN(C(=O)c2ccc(-c3cn4cc(-c5ccc(CNCCCNC(=N)N)cc5)c(=O)nc4[nH]3)cc2)CCN1 (centres unmarked) [Compound 822] | + (a “+” indicates that the compound has an MIC value of 16 micrograms/ml or less)
NCCCNCc1ccc(-n2cc3cc(-c4cccc(S(=O)(=O)NC5CCNCC5)c4)[nH]c3nc2=O)cc1 [Compound 823] | + (a “+” indicates that the compound has an MIC value of 16 micrograms/ml or less)
NCCCCOc1ccc(-c2cn3cc(-c4ccc(S(=O)(=O)NC5CCNCC5)cc4)[nH]c3nc2=O)cc1 [Compound 824] | − (a “−” indicates that the compound has an MIC value greater than 16 micrograms/ml)
NCCCNCc1ccc(-c2cn3cc(-c4ccc(C(=O)N5CCN(CCF)CC5)cc4)[nH]c3nc2=O)cc1 [Compound 825] | − (a “−” indicates that the compound has an MIC value greater than 16 micrograms/ml)
N=C(N)NCCCNCc1ccc(-c2cn3cc(-c4ccc(C(=O)N5CCN(CCF)CC5)cc4)[nH]c3nc2=O)cc1 [Compound 826] | − (a “−” indicates that the compound has an MIC value greater than 16 micrograms/ml)
N=C(N)NCCCNCc1ccc(-c2cn3cc(-c4ccc(C(=O)NCCO)cc4)[nH]c3nc2=O)cc1 [Compound 828] | + (a “+” indicates that the compound has an MIC value of 16 micrograms/ml or less)
NCCCNCc1ccc(-n2cc3cc(-c4ccc(S(=O)(=O)N(CC5CCOCC5)C5CCCNC5)cc4)[nH]c3nc2=O)cc1 (centres unmarked) [Compound 831] | + (a “+” indicates that the compound has an MIC value of 16 micrograms/ml or less)
CCn1cc(CCCN(C2CCNCC2)S(=O)(=O)c2ccc(-c3cc4cn(-c5ccc(CNCCCNC(=N)N)cc5)c(=O)nc4[nH]3)cc2)cn1 [Compound 837] | + (a “+” indicates that the compound has an MIC value of 16 micrograms/ml or less)
N=C(N)NCCCNCc1ccc(-n2cc3cc(-c4ccc(S(=O)(=O)N(CCCc5ccncc5)C5CCNCC5)cc4)[nH]c3nc2=O)cc1 [Compound 838] | + (a “+” indicates that the compound has an MIC value of 16 micrograms/ml or less)
N=C(N)NCCCNCc1ccc(-n2cc3cc(-c4ccc(S(=O)(=O)N(CCCN5CCCCC5)C5CCNCC5)cc4)[nH]c3nc2=O)cc1 [Compound 839] | + (a “+” indicates that the compound has an MIC value of 16 micrograms/ml or less)
N=C(N)NCCCNCc1ccc(-n2cc3cc(-c4ccc(S(=O)(=O)N(CCCC5CCCC5)C5CCNCC5)cc4)[nH]c3nc2=O)cc1 [Compound 840] | + (a “+” indicates that the compound has an MIC value of 16 micrograms/ml or less)
Cn1c(CCCN(C2CCNCC2)S(=O)(=O)c2ccc(-c3cc4cn(-c5ccc(CNCCCNC(=N)N)cc5)c(=O)nc4[nH]3)cc2)nc2ccccc21 [Compound 841] | + (a “+” indicates that the compound has an MIC value of 16 micrograms/ml or less)
N#CCCCN(C1CCNCC1)S(=O)(=O)c1ccc(-c2cc3cn(-c4ccc(CNCCCNC(=N)N)cc4)c(=O)nc3[nH]2)cc1 [Compound 842] | + (a “+” indicates that the compound has an MIC value of 16 micrograms/ml or less)
N=C(N)NCCCNCc1ccc(-n2cc3cc(-c4ccc(S(=O)(=O)N(CCCC(N)=O)C5CCNCC5)cc4)[nH]c3nc2=O)cc1 [Compound 843] | + (a “+” indicates that the compound has an MIC value of 16 micrograms/ml or less)
NCCCNCc1ccc(-n2cc3cc(-c4ccc(S(=O)(=O)N(CC5COCCO5)C5CCCNC5)cc4)[nH]c3nc2=O)cc1 (centres unmarked) [Compound 846] | + (a “+” indicates that the compound has an MIC value of 16 micrograms/ml or less)

same assay, conditions: Escherichia coli, ATCC25922, Escherichia coli strain ATCC25922, microdilution; read-out: E. coli ATCC25922 MIC

Structure (SMILES) | MIC [µg/mL]
CN(CCO)C(=O)c1ccc(-c2cn3cc(-c4ccc(CNCCCN)cc4)c(=O)nc3[nH]2)cc1 [Compound 771] | < 16
N=C(N)NCCCNCc1ccc(-c2cn3cc(-c4ccc(S(=O)(=O)NC5CCNCC5)cc4)[nH]c3nc2=O)cc1 [Compound 772] | < 16
NCCCNCc1ccc(-n2cc3cc(-c4cccc(N5CCNCC5)c4)[nH]c3nc2=O)cc1 [Compound 775] | < 16
N=C(N)NCCCNCc1ccc(-c2cn3cc(-c4ccc(C(=O)NC5CN6CCC5CC6)cc4)[nH]c3nc2=O)cc1 (centres unmarked) [Compound 778] | < 16
NCCCNCc1ccc(-n2cc3cc(CCN4CCS(=O)(=O)CC4)[nH]c3nc2=O)cc1 [Compound 784] | > 16
N=C(N)NCCCNCc1ccc(-n2cc3cc(CCN4CCS(=O)(=O)CC4)[nH]c3nc2=O)cc1 [Compound 785] | > 16
N=C(N)NCCCNCc1ccc(-c2cn3cc(-c4ccc(S(=O)(=O)N5CCNCC5)cc4)[nH]c3nc2=O)cc1 [Compound 788] | < 16
NCCCNCc1ccc(-c2cn3cc(-c4ccc(S(=O)(=O)N5CCNCC5)cc4)[nH]c3nc2=O)cc1 [Compound 789] | < 16
NCCCNCc1ccc(-c2cn3cc(-c4ccc(S(=O)(=O)N5CCN(C(=O)OCc6ccccc6)CC5)cc4)[nH]c3nc2=O)cc1 [Compound 791] | > 16
CN(C)C(=O)c1cc(-c2cc3cn(-c4ccc(CNCCCN)cc4)c(=O)nc3[nH]2)cc(N2CCNCC2)c1 [Compound 796] | < 16
CN(C)C(=O)c1cc(-c2cc3cn(-c4ccc(CNCCCNC(=N)N)cc4)c(=O)nc3[nH]2)cc(N2CCNCC2)c1 [Compound 797] | < 16
NCCCNCc1ccc(-c2cn3cc(-c4ccc(C(=O)NC5CCOCC5)cc4)[nH]c3nc2=O)cc1 [Compound 799] | > 16
NCCCCOc1ccc(-c2cn3cc(-c4ccc(Br)cc4)[nH]c3nc2=O)cc1 [Compound 810] | > 16
N=C(N)NCCCCOc1ccc(-c2cn3cc(-c4ccc(Br)cc4)[nH]c3nc2=O)cc1 [Compound 813] | > 16
NCCCNCc1ccc(-n2cc3cc(CCN[C@@H]4CCCNC4)[nH]c3nc2=O)cc1 [Compound 814] | < 16
N=C(N)NCCCNCc1ccc(-n2cc3cc(CCN[C@@H]4CCCNC4)[nH]c3nc2=O)cc1 [Compound 815] | < 16
NCCCNCc1ccc(-n2cc3cc(CCN[C@H]4CCCNC4)[nH]c3nc2=O)cc1 [Compound 816] | < 16
N=C(N)NCCCNCc1ccc(-n2cc3cc(CCN[C@H]4CCCNC4)[nH]c3nc2=O)cc1 [Compound 817] | < 16
NCCCNCc1ccc(-c2cn3cc(-c4ccc(C(=O)NCCO)cc4)[nH]c3nc2=O)cc1 [Compound 827] | > 16
NCCCCOc1ccc(-c2cn3cc(-c4ccc(C(=O)NC5CCNCC5)cc4)[nH]c3nc2=O)cc1 [Compound 829] | > 16
NCCCNCc1ccc(-n2cc3cc(-c4ccc(S(=O)(=O)N(CC5CCOCC5)C5CCCNC5)cc4)[nH]c3nc2=O)cc1 (centres unmarked) [Compound 830] | > 16
N=C(N)NCCCNCc1ccc(-n2cc3cc(-c4cccc(S(=O)(=O)NC5CCNCC5)c4)[nH]c3nc2=O)cc1 [Compound 836] | < 16
